Here are results for five compounds from patent US10857180B2, “Pharmaceutical composition for improving health, cure abnormalities and degenerative disease, achieve anti-aging effect of therapy and therapeutic effect on mammals and method thereof” (priority 2014, dated 2020).

For data set [1], the system named is normal rat kidney cells (NRK cell line). The experiment in a line: Scratch assay, NRK cells. It is filed as cell-based. Particulars: Doxorubicin 15 ng/ml; control 30 hours.
Method: (§1) The cells of A-549, A-431, NRK, HaCaT, MM-4, normal fibroblasts (derived from the Bank of Cell Lines from human and animal tissues, R. E. Kavetsky Institute of Experimental Pathology, Oncology and Radiobiology, National Academy of Sciences of Ukraine) were cultured in complete culture medium RPMI 1640/DMEM (PAA, Austria) (depending on the cell type) supplemented with 10% fetal calf serum (PAA, Austria) and incubated in 5% CO2 humidified atmosphere at 37° C. The culture medium was replaced in 2 to 3 days and the cells were passaged in 4 to 5 days.
(§2) Analysis of the influence of the components under study on the cell migration rate was performed using the scratch assay method. Cells (5×10^4/well) were seeded into the wells of a 12-well plate in 2 repeats in RPMI-1640/DMEM culture medium supplemented with 10% PBS, 40 mcg/ml of gentamicin and incubated in 5% CO2 humidified atmosphere at 37° C. for 24 hours.
(§3) The plate was incubated in a CO2 incubator for additional 48 hours. After the cells formed a dense monolayer it was damaged (by making a “scratch”) and the growth medium was replaced to remove cell debris and smooth the edges of the “scratch.” The rate of cell migration was analyzed using an inverted microscope and by photographing cells in the area of injury. The migration activity of cells was fixed at several time points (depending on the cell line analyzed). The microphotomicrographs were analyzed and the cell incubation time needed to restore the monolayer was determined for all experimental groups.
The test system of data set [2] is renal cell carcinoma (PA) cells. The experiment in a line: Viability of PA tumor cells (trypan blue, crystal violet; live-dead). To be noted: for IC50: Rattus norvegicus; for dose for 50% live, 50% dead: natural isotope distribution. It is filed as cell-based, rat. The source says:
To make the analysis, the cell suspension, after it was exposed to the action of materials, in a volume of 20 mcl was mixed with 20 mcl of trypan blue solution and resuspended. The obtained solution was placed in a hemocytometer chamber for visual analysis and quantitative estimation of the cells. To make the quantitative estimation of the cells, they were separated from the substrate using Versene solution and counted by staining cells with trypan. A change in the color of a cell was indicative of the violation of intactness of the cell membrane, and the more pronounced was the coloration, the less viable the cell was. […] They are easily distinguishable from dark damaged cells and easily identified with ordinary light microscope.
Alluding to the above, staining the Cells with Crystal Violet and their Quantitative Analysis will be discussed. Utilization of this method of assessment in the experiment makes it possible to quantify cells classified according to the living-dead criterion. The method is based on statistical evaluation of cells able to adhere to the substrate (to the plastic plate), cells capable of further proliferation. The criterion of the evaluation is the degree of optical permeability of a well with the cell sediment for a luminous flux of a certain wavelength. Removal of the culture medium from the wells is also accompanied by removal of non-adhering and unstained cells from the substrate, and adhesion and staining of the residue left on the substrate provides a quantitative characteristic of the number of cells which are capable of further division and multiplication.
Alluding to the above, viable tumor cells capable of further proliferation were fixed to the plastic surface and stained blue (after they were exposed to the action of components with natural distribution of isotopes) using the dye powder dissolved in 70% methanol solution. After 10 minutes the dye was removed from the wells with a micropipette and the cells were thoroughly rinsed three times with clean running water. The cell sediment fixed by the dye was dissolved with ethanol followed by determination of its concentration (which is indicative of the number of viable cells) and fixed via multi-well spectrophotometer with an excitation wave 540 nm in length.
Analysis of the effect of all components on the renal cell carcinoma (PA) was conducted to determine the relationship between the amount of the preparation (concentration characteristics of the component) and the quantitative characteristics of the cells. Assessment of the effect of the components was carried out on 2 concentration models with 30 and 300 thousand original tumor cells. After the cells were cultured, cell suspensions were prepared in the plates with the culture medium and an effect of the preparations (in various concentrations) on the tumor cells was assessed. The experiment was started with the concentration of 10 mg of the active substance per 1 ml of the solvent (saline with 5% glucose).
After the action of components with natural isotope distribution on PA tumor cells (in all 9 concentration dilutions of the preparations), they were stained with trypan blue. Staining cells (after the effect of the components) in blue is indicative of the respiratory impairment of the cells, which allows of classifying them as non-viable tumor units. The part of the cells remained uncolored is characterized as viable with the ability for further proliferation. […] The assessment was performed on 14 plates with 300 thousand cells in each well by counting the number of viable cells in the Goryaev chamber. Quantitative analysis of the cells was performed visually every 10 hours of the experiment.

In data set [3] the test system is human melanoma tumor cells (MM-4 cell line). The experiment in a line: Scratch assay, MM-4 cells. The format is cell-based. Particulars: Doxorubicin at 2 concentrations (0.1 and 0.01 mcg/ml).
Method: as §1
(§4) Analysis of the influence of the components under study on the cell migration rate was performed using the scratch assay method. […]
(§5) The plate was incubated in a CO2 incubator for additional 48 hours. After the cells formed a dense monolayer it was damaged (by making a “scratch”) and the growth medium was replaced to remove cell debris and smooth the edges of the “scratch.” The rate of cell migration was analyzed using an inverted microscope and by photographing cells in the area of injury. The migration activity of cells was fixed at several time points (depending on the cell line analyzed). The microphotomicrographs were analyzed and the cell incubation time needed to restore the monolayer was determined for all experimental groups. […]
Data set [4] deals with stem cells derived from rat fibroblasts (RF). The format is cell-based.
For the next data set, the system named is A-549 cell line. The experiment in a line: Scratch assay, A-549 cells.
In data set [5] the test system is normal rat kidney cells (NRK cell line). The experiment in a line: Effect on normal rat kidney cells versus Doxorubicin. To be noted: for live cells: 16 mcg/ml. The source says: An immortalized cell line is a stable, capable of unlimited proliferation cell line that consists of cells with […] in culture.
For data set [6], the system named is healthy human skin cells (HaCaT cell line). The experiment in a line: Scratch assay, HaCaT cells. It is filed as cell-based. Particulars: Doxorubicin 15 ng/ml and 5 ng/ml.
Method: as §1, §4, §5
Data set [7] has as its system human epidermoid carcinoma cells (A-431 cell line). The experiment in a line: Scratch assay, A-431 cells.
Method: as §1, §4, §5
For data set [8], the system named is renal cell carcinoma (PA) cells. The experiment in a line: Immunocytochemistry (H-Score) of PA cells. It is filed as cell-based, rat. The protocol:
When making the immunocytochemistry (ICC) assay, cells on microscope glasses (cytospin preparations) were fixed in the solution (methanol+acetone 1:1) for 2 hours at t 20° C. and incubated with 1% solution of bovine serum albumin (BSA) for 20 minutes. Then the monoclonal antibodies—CD44 (Diagnostic BioSystems), E-cadherin (ThermoScientific), N-cadherin (NeoMarker, BioLegend)—were applied for 60 minutes, after which the Poly Vue imaging system conjugated with peroxidase was used and the enzyme activity was detected using diaminobenzidine (ThermoScientific) as a substrate.
After the immunocytochemical reaction the preparations were washed with water and counterstained with hematoxylin-eosin (for 15-30 seconds). The results were analyzed by counting cells with expression (brown colored cells), using a light microscope and were assessed using the classical H-Score method: S=1×A+2×B+3×C, where S is the H-Score index giving a range of 0 (protein is not detected) to 300 (high-level expression in 100% of the cells); A is the percentage of weakly stained cells, B is the percentage of moderately stained cells and C is the percentage of strongly stained cells.

Data set [9] concerns normal rat kidney cells (NRK line). The experiment in a line: Immunocytochemistry of NRK cells. It is filed as cell-based. The protocol: When making the immunocytochemistry (ICC) assay, cells on microscope glasses (cytospin preparations) were fixed in the solution (methanol+acetone 1:1) for 2 hours at t 20° C. and incubated with 1% solution of bovine serum albumin (BSA) for 20 minutes. Then the monoclonal antibodies-CD44 (Diagnostic BioSystems), E-cadherin (ThermoScientific), N-cadherin (NeoMarker, BioLegend), SLUG (GeneTex)—were applied for the time period specified by the manufacturer (30 to 60 minutes), after which the Poly Vue imaging system conjugated with peroxidase was used and the enzyme activity was detected using diaminobenzidine (ThermoScientific) as a substrate. After the immunocytochemical reaction the preparations were washed with water and counterstained with hematoxylin-eosin (for 15 to 30 seconds).
The results were analyzed by counting cells with expression (brown colored cells) using a light microscope, and were assessed using the classical H-Score method: S=1×A+2×B+3×C, where S is the H-Score index giving a range of 0 (protein is not detected) to 300 (high-level expression in 100% of the cells); A is the percentage of weakly staining cells, B is the percentage of moderately staining cells and C is the percentage of strongly staining cells.

Where [10] appears, read: Zn sulfate 80 mcg/ml, trypan blue.

Converted amounts (≈) assume the structure as drawn. Where two headings read alike, the source gives them in different places.

Method for A-549 cell line: as §1, §2, §3

Regarding `COc1cccc2c1C(=O)c1c(O)c3c(c(O)c1C2=O)C[C@@](O)(C(=O)CO)C[C@@H]3O[C@H]1C[C@H](N)[C@H](O)[C@H](C)O1` [Doxorubicin], the “time of restoration of the damaged monolayer” value in [1] came to 72 h. Moreover, the dead cells in [2] (Doxorubicin 0.64 mcg/ml) amounted to 39%; in [2] (Doxorubicin 16 mcg/ml), 95%. The live cells was 61% in [2] (Doxorubicin 0.64 mcg/ml), 5% in [2] (Doxorubicin 16 mcg/ml), “live cells are virtually absent” in [5] (within 30 min) and “live cells are absent” in [5] (within 48 hours). Also, the IC50 stood at 3.2 µg/mL (≈ 5.89 µM) in data set [2] (crystal violet and trypan blue, read-out: concentration that kills 50% of the tumor cells); 3.2 µg/mL (≈ 5.89 µM) in data set [2] (read-out: dose that killed 50% of tumor cells). Besides, in [3], the “period of closing of the gap” value stood at 48 h. Besides, in data set [4] (Doxorubicin 15 ng/ml or 5 ng/ml), the “time of restoration of the cell interval” value is more than 72 h. The death of cells in [4] (Doxorubicin 15 ng/ml, within 96 hours after administration) is 95%. The “time of restoration of the cell monolayer” value in the data set on A-549 cell line (Doxorubicin 0.02 mcg/ml) is 60 h; in the data set on A-549 cell line (Doxorubicin 0.2 mcg/ml), less than 24 h. Moreover, the “time of full restoration of the cell monolayer” value in the data set with A-549 cell line (Doxorubicin (2 mcg/ml per FIG. 113-116)) came out at 24 h. Besides, the “effect on normal NRK cells” value is given as “causing death of normal NRK cells” in data set [5] (3 to 0.01 mcg/ml) and “complete death” in data set [5] (400 to 16 mcg/ml, 48 hours). Moreover, the cell migration rate entry in data set [6] is reported as “inhibition of the cell migration rate”. Moreover, the “time for the cell monolayer repair” value in data set [7] (Doxorubicin 0.02 mg/ml) was found to be 48 h. For the same compound, the “time to close up the cellular gap” value in data set [7] (Doxorubicin 0.1 mcg/ml, control 48 hours) was determined as 45 h.

Take `[Cl-].[K+]` [K]: the “dose for 50% live, 50% dead” value in data set [2] was “about 2 mg”.

In the case of `O=S(=O)([O-])[O-].[Mg+2]` [Mg], in data set [2], the “dose for 50% kill, times as high as Doxorubicin EBEWE” value worked out at 1600 times and the “dose for 50% live, 50% dead” value is “about 5 mg”.

`O=S(=O)([O-])[O-].[Zn+2]` [Zn]: in data set [2], the “dose for 50% kill, times as high as Doxorubicin EBEWE” value is listed as 100 times. In [2] (Zn sulfate 16 mcg/ml), this compound had a dead tumor cells of 7% and a live tumor cells of 93%. In data set [2] (setting [10]), the dead tumor cells is 75% and the live tumor cells was 25%.

As to `O=S(=O)([O-])[O-].[64Zn+2]` [^64Zn—Z2], the “CD44 marker positive cells, H-Score scale” value in data set [8] (3.2 mcg/ml) was 118 units. In addition, in [8] (^64Zn—Z2 3.2 and 0.128 mcg/ml), the N-cadherin level result is recorded as “does not change” and the “number of E-cadherin-positive cells” value is recorded as “grows”. In data set [8] (dose D1 0.128 mcg/ml), the “E-cadherin-positive cells, H-Score scale” value is on record as 300. In addition, in data set [9], the “phenotype of normal cells” value is reported as “has not changed”.
